Results: US5620975A, “Pharmaceutical composition and method for the control of hypertension” (Hoffmann-La Roche Inc., priority 1991, dated 1997)
Counter-ions that a name gives are not always drawn.

Key:
[1] = system: conscious dogs having renal hypertension; test: Blood pressure (MAP, telemetry) in conscious dogs having renal hypertension; assay type: in vivo, dog (German sheepdogs); details: FIG. 1, conscious renal hypertensive dogs
Experimental: The antihypertensive effect of the combination was investigated in conscious dogs having renal hypertension. The hypertension was produced in German sheepdogs (weight 23-30 kg) using known methods in which one kidney is wrapped with cellophane and a stenosis is formed in the renal artery of the contralateral kidney using an occluder. The blood pressure was measured with a catheter implanted in the abdominal aorta and connected to a transmitter in the abdominal, cavity (telemetry). FIG. 1 illustrates the effect of cilazapril (10 mg/kg per os) and Compound A (30 mg/kg per os) alone, as well as, the effect of the simultaneous administration of the same dosages of the two substances (n=3 dogs for cilazapril and the combination, n=4 dogs for Compound A).

[2] = system: media of the right carotid artery; test: Cross-section surface (area) of the media of the carotid artery in rats after 15 days of treatment; assay type: in vivo, rat (male, strain RoRo); details: rat carotid artery; for area of the media: cilazapril 10 mg/kg daily in feed, Compound A 30 mg/kg by probang, control 89000±5000 μm^2, combination p<0.05 (Student t-test); for effect of individual treatment on media area: result in words
Experimental: The influence of the individual compounds and their combination on the blood vessels was investigated in rats. Male rats, strain: RoRo (weight about 400 g; aged 4-5 months; Institut fur Biologisch-Medizinische Forschung, Fullinsdorf, CH) were used. The animals were divided randomly into a control group and into treatment groups. The duration of the treatment was 15 days. Cilazapril was admixed with the feed in an amount such that the daily intake was on average 10 mg/kg and Compound A (30 mg/kg) was administered using a probang. The control animals received the same laboratory feed without additive.
After 15 days, the rats were anaesthetized with ether and the carotid artery was fixed by perfusion with fixative agent (2.5% glutaraldehyde in 0.1M phosphate buffer, pH 7.4). For this, a probe was passed through the left ventricle of the heart into the ascending aorta (inflow) and a second probe was pushed through the right ventricle into the auricle (discharge).The vascular system was firstly rinsed with 10 ml of buffered isotonic NaCl solution and then fixed for 15 minutes with fixative at a pressure of 11.7 kPa. Subsequently, the right carotid artery was dissected, freed from adhering tissue and placed in 2.5% glutaraldehyde for further fixation. Each artery was divided into five vascular segments from the distal end to the proximal end, dehydrated and embedded in EPON 12 (Registered Mark of Shell A.G.). The middle segment was used for the morphological investigations. Semi-thin cross-sections (1 μm thick) were colored with toluidine blue and basic fuchsin. The cross-section surface of the media was measured with the morphometry system DIASYS (Datalab, Heinz Meyer, CH-3367 Thorigen).

Bioavailability = details: in vivo

Row | bioavailability (Bioavailability) [%] | Structure (SMILES) | lowering of blood pressure (MAP) ([1]; Compound A 30 mg/kg per os alone, n=4) | area of the media [2] [μm^2] | effect of individual treatment on media area [2] | effect on blood pressure (MAP) ([1]; cilazapril 10 mg/kg per os, Compound A 30 mg/kg per os, alone or simultaneously, result in words)
1 | 80 to 100 | COCC(=O)OC1(CCN(C)CCCc2nc3ccccc3[nH]2)CCc2cc(F)ccc2C1C(C)C (centres unmarked) [Compound A, [1S,2S]-2-[2-[[3-(2-benzimidazolyl)propyl]methylamino]ethyl]-6-fluoro-1,2,3,4-tetrahydro-1-isopropyl-2-naphthylmethoxyacetate dihydrochloride] | 10-20 mmHg | 87000±4000 | without effect | –
2 | 70 | CCOC(=O)[C@H](CCc1ccccc1)N[C@H]1CCCN2CCC[C@@H](C(=O)O)N2C1=O [cilazapril, 9(S)-[1(S)-ethoxycarbonyl-3-phenylpropylamino]octahydro-10-oxo-6H-pyridazo[1,2-a][1,2]diazepine-1(S)-carboxylic acid] | – | 84000±11000 | without effect | without effect
